The results in this text go back to patent US20080020973A1 (priority 2004, published 2008).

For one assay, the target named is vaccinia DNA topoisomerase IB (vTopo) (Vaccinia virus, UniProt P68698). As to the kind of experiment: biochemical. Particulars: 10 µM.
`O=C(O)c1cc2c(cc1S(=O)(=O)O)C1C(C3C2C2(Cl)C(Cl)=C(Cl)C3(Cl)C2(Cl)Cl)C2(Cl)C(Cl)=C(Cl)C1(Cl)C2(Cl)Cl` (stereo not drawn) [NSC 270718]: the “% Inhibition (RNAse HTS)” value was 100% @.

Still in this assay, the particulars now being: 100 µM.
Regarding `Nc1ncnc2nc[nH]c12.Nc1ncnc2nc[nH]c12.[Cl][Pt]([Cl])([Cl])[Cl]` [NSC 177395], the “% Inhibition (RNAse HTS)” value was determined as 100% @. Regarding `COc1ccc2c3c([nH]c2c1)C1CC2C(CC(O)C(OC)C2C(=O)O)CN1CC3` (stereo not drawn) [NSC 81463], the “% Inhibition (RNAse HTS)” value is on record as “Partial @100 μM”. The same measure, in the same setting: as for `CCC(O)[NH+]1CC[NH+](C(O)CC)CC1.[Cl][Pt-2]([Cl])([Cl])([Cl])([Cl])[Cl]` (stereo not drawn) [NSC 295558], the figure is 100% @; as for `O=C(O)c1cnc2c(ccc3ncc(C(=O)O)c(O)c32)c1O` [NSC 1288884], “Partial @100 μM”. Still for that read-out and setting: as for `Cc1ccc(NC(=[OH+])c2cc3ccccc3cc2O)c(C)c1.Cc1ccc(NC(=[OH+])c2cc3ccccc3cc2O)c(C)c1.[Ni]` [NSC 306698], the figure is 100% @100 μM. On to `COc1ccc(/C=N/c2c(O)ccc3ccccc23)cc1OC` [NSC 17061], for which the “% Inhibition (RNAse HTS)” value was “Partial @100 μM”.

The assay is the same for the next values; noted with them: 0.5 h, read-out: % vTopo activity.
As to `O=[N+]([O-])/C=C/c1cc2ccccc2[nH]1` [NSC 150982], the remaining activity at 100 µM worked out at 54%. For `CNCSC(C)c1ccc(O)c(O)c1` (stereo not drawn) [NSC 39215], the remaining activity at 100 µM is 27%. In the case of `C/C(=N\CC(=O)O)c1ccccc1` [NSC 125214], the remaining activity at 100 µM was found to be 53%. The same measure, in the same setting: as for `CCC(=C(C)C)c1ccc(Oc2cccc(C(=O)O)c2)cc1` [NSC 7962], the figure is 33%; as for `Cc1cc(O)c(-c2cc(O)c(C)cc2O)cc1O` [NSC 2805], 30%; as for `O=C(O)Cc1c(O)ccc2ccccc12` [NSC 163339], 48%.

Still in this assay, the particulars now being: read-out: % Inhibition (RNAse HTS).
For `Cc1cc(N)c2cc(OCCOc3ccc4nc(C)cc(N)c4c3)ccc2n1` [NSC 22907], the inhibition at 100 µM was found to be 100%. The same measure, in the same setting: as for `O=C1CNCCCN2CCN(CCCNCC(=O)Nc3ccc(cc3)S(=O)(=O)c3ccc(cc3)NC(=O)CNCCCN3CCN(CCCNCC(=O)Nc4ccc(cc4)S(=O)(=O)c4ccc(cc4)N1)CC3)CC2` [NSC 95609], the figure is 100%.

On to `Nc1c(S(N)(=O)=O)cc(S(N)(=O)=O)cc1S(N)(=O)=O` [NSC 25857], for which the inhibition at 100 µM was 100%. `COc1cc(C)cc2c(-c3c(O)cc(O)c4c3CC(C)NC4C)cc(-c3cc(-c4c(O)cc(O)c5c4CC(C)NC5C)c4cc(C)cc(OC)c4c3O)c(O)c12` (stereo not drawn) [NSC 661755]: the inhibition at 10 µM came out at 100%. For the compound `Nc1c(OCC(=O)O)ccc2cc(S(=O)(=O)O)ccc12` [NSC 16163], the inhibition at 100 µM was 100%. For `Cc1c/c(=N\c2ccc3c(c2)c(N)cc(C)[n+]3C)nc(N)n1C` [NSC 48223], the inhibition at 100 µM is 100%.

On to `CC(C)(C)C(=O)C(C(c1ccccc1)N1CCOCC1)N1CCOCC1` (stereo not drawn) [NSC 33571], for which the inhibition at 100 µM is 100%. On the same count and under the same terms, as for `COc1ccc2nc3cc(Cl)ccc3c(Nc3ccc(O)c(CN4CCN(C)CC4)c3)c2c1` [NSC 130813], the figure is 100%. Still for that read-out and setting: as for `O=C(O)c1cc(-c2ccc(-c3ccc(-c4cc(C(=O)O)c5cc(Cl)ccc5n4)cc3)cc2)nc2ccc(Cl)cc12` [NSC 210627], the figure is 100%. With `CN1CCN(c2ccc3[nH]c(-c4ccc5[nH]c(-c6ccc(O)cc6)nc5c4)nc3c2)CC1` [NSC 322921], the inhibition at 100 µM stood at 100%.

With `O=C(O)C1C(C(=O)Nc2ccc3c(c2)Cc2ccccc2-3)C2(Cl)C(Cl)=C(Cl)C1(Cl)C2(Cl)Cl` (stereo not drawn) [NSC 73101], the inhibition at 100 µM is 100%.

As to `CC1CCC2(C(=O)O)CCC3(C)C(=CCC4C5(C)CC(O)C(O)C(C)(CO)C5C(O)CC43C)C2C1C` (stereo not drawn) [NSC 88135], the inhibition at 100 µM is 100%. Regarding `CCCCCC(O)C1C(=O)OC(C)O/C=C/C=C/C=CC=C/C=C(/C)C(O)CC(O)CC(O)CC(O)CC(O)CC(O)CC1O` (stereo not drawn) [NSC 3364], the inhibition at 100 µM was found to be 100%. Regarding `COc1ccc2c(=O)cc(-c3ccncc3)oc2c1OC` [NSC 54646], the inhibition at 10 µM turned out to be 100%.

For orientation: inhibition means how much of the control response was suppressed.
